Measurements taken from patent EP4741383A1, “COMPOUND AND USE THEREOF AS ANTI-CANCER DRUG” (Tyligand Bioscience (Shanghai) Limited, priority 2023, dated 2025).

Key:
Type in all cases: biochemical
SHP1 = target: T1, SHP1 (Homo sapiens, UniProt P29350); experiment: Tyrosine phosphatase selectivity (pNPP substrate), SHP1; conditions: for IC50: SHP1, pNPP substrate; for IC50PTP/IC50SHP2 SHP1: selectivity ratio SHP1 over SHP2
T1 construct: made in house; host or cells: E. coli
Method: (§1) This experiment evaluated the selectivity of the disclosed compounds against tyrosine phosphatases, including SHP1, HePTP, Laforin, LMWPTP, LYP, PTP1B, PRL2, SSU72, VHR, FAP1, STEP, CDC14A, CD45, MEG2, and PP5, all expressed and purified from E. coli.
(§2) Phosphatase activity was measured using p-nitrophenyl phosphate (pNPP) (Fisher Scientific) as the substrate in 50 mM 3,3-dimethylglutaric acid buffer (pH 7.0, containing 1 mM EDTA), with ionic strength adjusted to 0.15 M with NaCl. […] After 10-60 minutes, the reaction was quenched by adding 20 µL of 5 N NaOH. Wells without enzyme were used as controls for correction. The amount of the product, p-nitrophenol, was determined by measuring the absorbance at 405 nm using a Spectra MAX340 microplate spectrophotometer (Molecular Devices), with a molar extinction coefficient of 18000 M^-1cm^-1.
(§3) Data were analyzed using GraphPad Prism software. Dose-response curves were obtained by fitting data using the nonlinear S-curve regression Dose-response-inhibition equation, and IC50 values were calculated.

Laforin = target: T2, Laforin (Homo sapiens, UniProt O95278); experiment: Tyrosine phosphatase selectivity (pNPP substrate), Laforin; conditions: for IC50: Laforin, pNPP substrate; for IC50PTP/IC50SHP2 Laforin: selectivity ratio Laforin over SHP2
T2 construct: made in house; host or cells: E. coli
T2 sequence (O95278 1-331): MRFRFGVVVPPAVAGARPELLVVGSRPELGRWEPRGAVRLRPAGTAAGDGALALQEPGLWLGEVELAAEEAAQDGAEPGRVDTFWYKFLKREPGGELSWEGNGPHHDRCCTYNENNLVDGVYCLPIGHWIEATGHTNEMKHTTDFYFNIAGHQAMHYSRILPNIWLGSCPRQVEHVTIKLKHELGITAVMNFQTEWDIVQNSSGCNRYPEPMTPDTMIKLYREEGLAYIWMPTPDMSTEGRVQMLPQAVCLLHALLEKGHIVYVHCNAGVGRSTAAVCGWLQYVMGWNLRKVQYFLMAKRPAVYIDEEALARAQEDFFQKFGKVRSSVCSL
Method: as §1, §2, §3

PTP1B = target: T3, PTP1B (Homo sapiens, UniProt P18031); experiment: Tyrosine phosphatase selectivity (pNPP substrate), PTP1B; conditions: for IC50: PTP1B, pNPP substrate; for IC50PTP/IC50SHP2 PTP1B: selectivity ratio PTP1B over SHP2
T3 construct: made in house; host or cells: E. coli
T3 sequence (P18031 1-435): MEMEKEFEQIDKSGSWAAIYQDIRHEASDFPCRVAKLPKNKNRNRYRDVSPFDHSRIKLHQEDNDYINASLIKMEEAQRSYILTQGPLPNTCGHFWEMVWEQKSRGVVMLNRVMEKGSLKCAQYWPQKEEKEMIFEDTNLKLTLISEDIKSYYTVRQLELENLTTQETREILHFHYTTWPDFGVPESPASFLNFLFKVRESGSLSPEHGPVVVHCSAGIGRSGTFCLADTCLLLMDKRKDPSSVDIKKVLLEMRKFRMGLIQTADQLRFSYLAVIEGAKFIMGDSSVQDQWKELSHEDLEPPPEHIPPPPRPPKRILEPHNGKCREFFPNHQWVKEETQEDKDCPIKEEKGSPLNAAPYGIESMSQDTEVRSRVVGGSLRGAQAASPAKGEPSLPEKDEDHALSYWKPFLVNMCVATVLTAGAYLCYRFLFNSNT
Method: as §1, §2, §3

PRL2 = target: T4, PRL2 (Homo sapiens, UniProt Q12974); experiment: Tyrosine phosphatase selectivity (pNPP substrate), PRL2; conditions: for IC50: PRL2, pNPP substrate; for IC50PTP/IC50SHP2 PRL2: selectivity ratio PRL2 over SHP2
T4 construct: made in house; host or cells: E. coli
T4 sequence (Q12974 1-167): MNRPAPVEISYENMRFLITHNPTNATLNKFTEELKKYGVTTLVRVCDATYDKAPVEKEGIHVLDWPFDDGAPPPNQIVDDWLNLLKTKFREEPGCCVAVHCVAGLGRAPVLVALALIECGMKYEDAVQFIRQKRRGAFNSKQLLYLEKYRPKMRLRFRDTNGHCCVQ
Method: as §1, §2, §3

SSU72 = target: T5, SSU72 (Homo sapiens, UniProt Q9NP77); experiment: Tyrosine phosphatase selectivity (pNPP substrate), SSU72; conditions: for IC50: SSU72, pNPP substrate; for IC50PTP/IC50SHP2 SSU72: selectivity ratio SSU72 over SHP2
T5 construct: made in house; host or cells: E. coli
T5 sequence (Q9NP77 1-194): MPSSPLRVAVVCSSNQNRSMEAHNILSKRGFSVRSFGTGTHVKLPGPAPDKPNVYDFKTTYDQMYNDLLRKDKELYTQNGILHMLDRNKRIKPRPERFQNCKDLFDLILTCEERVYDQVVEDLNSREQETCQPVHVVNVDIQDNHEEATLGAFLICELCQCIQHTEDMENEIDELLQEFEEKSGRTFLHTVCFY
Method: as §1, §2, §3

FAP1 [1] = target: T6, FAP1 (Homo sapiens, UniProt Q12923); experiment: Tyrosine phosphatase selectivity (pNPP substrate), FAP1; conditions: FAP1, pNPP substrate
T6 sequence (Q12923 2163-2477): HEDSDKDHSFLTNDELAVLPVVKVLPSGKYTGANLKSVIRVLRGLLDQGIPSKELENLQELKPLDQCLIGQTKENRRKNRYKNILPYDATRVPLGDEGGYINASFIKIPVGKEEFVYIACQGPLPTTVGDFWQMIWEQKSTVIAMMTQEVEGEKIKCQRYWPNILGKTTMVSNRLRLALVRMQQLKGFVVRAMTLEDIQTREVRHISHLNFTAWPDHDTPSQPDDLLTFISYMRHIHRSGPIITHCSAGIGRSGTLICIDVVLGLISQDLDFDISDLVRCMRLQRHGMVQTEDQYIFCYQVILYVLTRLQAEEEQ
Method: as §1, §2, §3

FAP1 [2] = experiment: as above; conditions: selectivity ratio FAP1 over SHP2
Method: as §1, §2, §3

STEP = target: T7, STEP (Homo sapiens, UniProt P54829); experiment: Tyrosine phosphatase selectivity (pNPP substrate), STEP; conditions: for IC50: STEP, pNPP substrate; for IC50PTP/IC50SHP2 STEP: selectivity ratio STEP over SHP2
T7 construct: made in house; host or cells: E. coli
T7 sequence (P54829 1-565): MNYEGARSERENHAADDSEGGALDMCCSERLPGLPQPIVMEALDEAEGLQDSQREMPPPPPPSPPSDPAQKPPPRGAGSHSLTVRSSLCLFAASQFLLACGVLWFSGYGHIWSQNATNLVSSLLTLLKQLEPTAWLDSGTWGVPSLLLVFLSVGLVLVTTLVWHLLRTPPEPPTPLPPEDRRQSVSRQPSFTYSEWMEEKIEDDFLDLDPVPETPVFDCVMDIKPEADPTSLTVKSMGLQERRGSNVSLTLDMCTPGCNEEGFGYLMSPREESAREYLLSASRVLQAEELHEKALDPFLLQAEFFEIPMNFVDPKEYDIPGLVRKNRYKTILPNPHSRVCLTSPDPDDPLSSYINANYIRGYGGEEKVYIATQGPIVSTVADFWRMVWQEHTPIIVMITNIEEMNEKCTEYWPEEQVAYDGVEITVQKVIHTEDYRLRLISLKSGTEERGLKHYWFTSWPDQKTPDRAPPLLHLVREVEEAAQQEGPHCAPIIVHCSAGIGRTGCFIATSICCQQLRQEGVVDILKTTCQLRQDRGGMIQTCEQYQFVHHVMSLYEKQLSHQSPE
Method: as §1, §2, §3

T1 sequence (P29350 whole entry): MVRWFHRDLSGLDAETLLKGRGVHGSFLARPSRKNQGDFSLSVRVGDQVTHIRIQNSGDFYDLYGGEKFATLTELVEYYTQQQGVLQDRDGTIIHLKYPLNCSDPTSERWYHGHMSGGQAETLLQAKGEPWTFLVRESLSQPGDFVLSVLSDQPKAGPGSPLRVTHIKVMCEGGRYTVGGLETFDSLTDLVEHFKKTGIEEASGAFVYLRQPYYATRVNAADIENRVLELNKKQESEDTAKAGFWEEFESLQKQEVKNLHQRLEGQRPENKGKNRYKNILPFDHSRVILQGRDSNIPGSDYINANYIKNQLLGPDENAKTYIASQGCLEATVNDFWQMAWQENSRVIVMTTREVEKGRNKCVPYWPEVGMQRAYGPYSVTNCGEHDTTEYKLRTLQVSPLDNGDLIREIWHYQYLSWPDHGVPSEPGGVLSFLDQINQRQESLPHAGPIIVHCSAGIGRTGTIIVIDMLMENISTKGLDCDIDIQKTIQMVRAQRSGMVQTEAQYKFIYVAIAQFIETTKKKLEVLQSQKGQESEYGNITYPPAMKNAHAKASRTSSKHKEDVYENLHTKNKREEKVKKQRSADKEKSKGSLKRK

SMILES	IC50 (SHP1)	IC50PTP/IC50SHP2 SHP1 (SHP1)	IC50 (Laforin)	IC50PTP/IC50SHP2 Laforin (Laforin)	IC50 (PTP1B)	IC50PTP/IC50SHP2 PTP1B (PTP1B)	IC50 (PRL2)	IC50PTP/IC50SHP2 PRL2 (PRL2)	IC50 (SSU72)	IC50PTP/IC50SHP2 SSU72 (SSU72)	IC50 (FAP1 [1])	IC50PTP/IC50SHP2 FAP1 (FAP1 [2])	IC50 (STEP)	IC50PTP/IC50SHP2 STEP (STEP)
O=C(Nc1ccc(-c2ccsc2)cc1)C(=O)Nc1ccc(-c2oc3cc(F)c(-c4nnn[nH]4)cc3c2C2CCC2)cc1 [Example 130]	0.6 µM	24.0	> 20 µM	800	11.6 µM	464	> 50 µM	2000	< 3 µM	120	< 3 µM	120	< 3 µM	120
O=C(Nc1ccc(-c2ccsc2)cc1)C(=O)Nc1ccc(-c2cc3cnc(-c4nnn[nH]4)nc3n2C2CCC2)cc1 [Example 131]	0.8 µM	30.8	> 20 µM	769.2	4.7 µM	180.8	> 50 µM	1923.1	< 3 µM	115.4	11 µM	423.1	8.4 µM	323.1
O=C(Nc1ccc(-c2ccsc2)cc1)C(=O)Nc1ccc(-c2cc3cc(F)c(-c4nnn[nH]4)nc3n2C2CCC2)cc1 [Example 132]	0.6 µM	22.2	> 20 µM	740.7	2.7 µM	100	> 50 µM	1851.9	< 3 µM	111.1	13.5 µM	500	10.6 µM	392.6
